Measured values published in PubChem BioAssay (NCI).
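Test compounds were applied to cells in 96-well plates for 48 hours at 5 doses. TGI: total growth inhibition.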

Tests used:
Experiment in all cases: growth of human tumour cells (NCI), 48 h
OVCAR-8 ovarian = test system: OVCAR-8 ovarian
MDA-MB-435 = test system: MDA-MB-435
M14 melanoma = test system: M14 melanoma
SNB-19 CNS = test system: SNB-19 CNS
HCT-116 colon = test system: HCT-116 colon
K-562 leukemia = test system: K-562 leukemia
ACHN renal = test system: ACHN renal
UACC-257 melanoma = test system: UACC-257 melanoma
IGROV1 ovarian = test system: IGROV1 ovarian
SF-539 CNS = test system: SF-539 CNS
A549 NSCLC = test system: A549 NSCLC
OVCAR-4 ovarian = test system: OVCAR-4 ovarian
SR leukemia = test system: SR leukemia
OVCAR-5 ovarian = test system: OVCAR-5 ovarian
NCI-H23 lung = test system: NCI-H23 lung
KM12 colon = test system: KM12 colon
786-0 renal = test system: 786-0 renal
MDA-N = test system: MDA-N
BT-549 breast = test system: BT-549 breast
MOLT-4 leukemia = test system: MOLT-4 leukemia
MALME-3M melanoma = test system: MALME-3M melanoma
HT29 colon = test system: HT29 colon
UO-31 renal = test system: UO-31 renal
SN12C renal = test system: SN12C renal
RPMI-8226 leukemia = test system: RPMI-8226 leukemia
LOX IMVI melanoma = test system: LOX IMVI melanoma
HL-60(TB) leukemia = test system: HL-60(TB) leukemia
NCI-H460 lung = test system: NCI-H460 lung
COLO 205 colon = test system: COLO 205 colon
UACC-62 melanoma = test system: UACC-62 melanoma
SK-OV-3 ovarian = test system: SK-OV-3 ovarian
NCI/ADR-RES ovarian = test system: NCI/ADR-RES ovarian
SW-620 colon = test system: SW-620 colon
SK-MEL-2 melanoma = test system: SK-MEL-2 melanoma
MDA-MB-231 breast = test system: MDA-MB-231 breast
SF-268 CNS = test system: SF-268 CNS
SK-MEL-28 melanoma = test system: SK-MEL-28 melanoma
TK-10 renal = test system: TK-10 renal
CAKI-1 renal = test system: CAKI-1 renal
OVCAR-3 ovarian = test system: OVCAR-3 ovarian
SNB-75 CNS = test system: SNB-75 CNS
SF-295 CNS = test system: SF-295 CNS
U251 CNS = test system: U251 CNS
PC-3 prostate = test system: PC-3 prostate
SK-MEL-5 melanoma = test system: SK-MEL-5 melanoma
HOP-62 NSCLC = test system: HOP-62 NSCLC
HCT-15 colon = test system: HCT-15 colon
A498 renal = test system: A498 renal
HS 578T breast = test system: HS 578T breast
MCF7 breast = test system: MCF7 breast
HCC-2998 colon = test system: HCC-2998 colon
NCI-H522 lung = test system: NCI-H522 lung
CCRF-CEM leukemia = test system: CCRF-CEM leukemia
NCI-H226 lung = test system: NCI-H226 lung
EKVX NSCLC = test system: EKVX NSCLC
RXF 393 renal = test system: RXF 393 renal
T-47D breast = test system: T-47D breast
HOP-92 NSCLC = test system: HOP-92 NSCLC
DU-145 prostate = test system: DU-145 prostate

In the case of `CS(=O)(=O)OCCN1CCC2(CC1)SSC1(CCN(CCOS(C)(=O)=O)CC1)S2`, the TGI (OVCAR-8 ovarian) is reported as greater than 100 µM, the TGI (MDA-MB-435) is reported as greater than 100 µM and the TGI (M14 melanoma) is reported as greater than 100 µM. The TGI (SNB-19 CNS) was greater than 100 µM, the TGI (HCT-116 colon) was greater than 100 µM and the TGI (K-562 leukemia) was greater than 100 µM. For the same molecule, the TGI (ACHN renal) was greater than 100 µM, the TGI (UACC-257 melanoma) was greater than 100 µM and the TGI (IGROV1 ovarian) was greater than 100 µM. It also gave a TGI (SF-539 CNS) greater than 100 µM, a TGI (A549 NSCLC) greater than 100 µM and a TGI (OVCAR-4 ovarian) greater than 100 µM. It also gave a TGI (SR leukemia) of 65.9 µM, a TGI (OVCAR-5 ovarian) of 93.2 µM and a TGI (NCI-H23 lung) greater than 100 µM. The TGI (KM12 colon) was greater than 100 µM, the TGI (786-0 renal) was greater than 100 µM and the TGI (MDA-N) was greater than 100 µM. For the same molecule, the TGI (BT-549 breast) was greater than 100 µM, the TGI (MOLT-4 leukemia) was greater than 100 µM and the TGI (MALME-3M melanoma) was 68.1 µM. The TGI (HT29 colon) was greater than 100 µM, the TGI (UO-31 renal) was greater than 100 µM and the TGI (SN12C renal) was greater than 100 µM. For the same molecule, the TGI (RPMI-8226 leukemia) was 29.6 µM, the TGI (LOX IMVI melanoma) was 97.8 µM and the TGI (HL-60(TB) leukemia) was 59.7 µM. The TGI (NCI-H460 lung) was greater than 100 µM, the TGI (COLO 205 colon) was greater than 100 µM and the TGI (UACC-62 melanoma) was greater than 100 µM. The TGI (SK-OV-3 ovarian) was greater than 100 µM, the TGI (NCI/ADR-RES ovarian) was greater than 100 µM and the TGI (SW-620 colon) was greater than 100 µM. For the same molecule, the TGI (SK-MEL-2 melanoma) was greater than 100 µM, the TGI (MDA-MB-231 breast) was greater than 100 µM and the TGI (SF-268 CNS) was 58.1 µM. The TGI (SK-MEL-28 melanoma) was greater than 100 µM, the TGI (TK-10 renal) was 55.8 µM and the TGI (CAKI-1 renal) was 44.9 µM. The TGI (OVCAR-3 ovarian) was 99.7 µM, the TGI (SNB-75 CNS) was greater than 100 µM and the TGI (SF-295 CNS) was greater than 100 µM. It also gave a TGI (U251 CNS) greater than 100 µM, a TGI (PC-3 prostate) greater than 100 µM and a TGI (SK-MEL-5 melanoma) greater than 100 µM. For the same molecule, the TGI (HOP-62 NSCLC) was greater than 100 µM, the TGI (HCT-15 colon) was greater than 100 µM and the TGI (A498 renal) was 56.1 µM. The TGI (HS 578T breast) was greater than 100 µM and the TGI (MCF7 breast) was 44.9 µM.
`CC(NC(=O)/C(=C/c1ccccc1O)NC(=O)c1ccccc1)C(=O)O` (centres undefined) gave a TGI (OVCAR-8 ovarian) of 29.1 µM, a TGI (MDA-MB-435) greater than 100 µM and a TGI (M14 melanoma) greater than 100 µM. For the same molecule, the TGI (SNB-19 CNS) was 55.2 µM, the TGI (HCT-116 colon) was greater than 100 µM and the TGI (K-562 leukemia) was greater than 100 µM. For the same molecule, the TGI (HCC-2998 colon) was 76.2 µM, the TGI (NCI-H522 lung) was 50 µM and the TGI (ACHN renal) was 33.2 µM. The TGI (UACC-257 melanoma) was greater than 100 µM, the TGI (IGROV1 ovarian) was greater than 100 µM and the TGI (SF-539 CNS) was 46.4 µM. For the same molecule, the TGI (CCRF-CEM leukemia) was greater than 100 µM, the TGI (A549 NSCLC) was greater than 100 µM and the TGI (OVCAR-4 ovarian) was greater than 100 µM. For the same molecule, the TGI (OVCAR-5 ovarian) was greater than 100 µM, the TGI (NCI-H226 lung) was 45.5 µM and the TGI (NCI-H23 lung) was greater than 100 µM. It also gave a TGI (KM12 colon) greater than 100 µM, a TGI (786-0 renal) of 68.1 µM and a TGI (MDA-N) greater than 100 µM. It also gave a TGI (BT-549 breast) of 50.2 µM, a TGI (MOLT-4 leukemia) greater than 100 µM and a TGI (MALME-3M melanoma) greater than 100 µM. The TGI (HT29 colon) was greater than 100 µM, the TGI (UO-31 renal) was 34.6 µM and the TGI (SN12C renal) was 48.1 µM. For the same molecule, the TGI (EKVX NSCLC) was 88.2 µM, the TGI (RPMI-8226 leukemia) was greater than 100 µM and the TGI (LOX IMVI melanoma) was greater than 100 µM. The TGI (HL-60(TB) leukemia) was greater than 100 µM, the TGI (NCI-H460 lung) was 64.9 µM and the TGI (COLO 205 colon) was greater than 100 µM. For the same molecule, the TGI (UACC-62 melanoma) was greater than 100 µM, the TGI (RXF 393 renal) was 57.6 µM and the TGI (SK-OV-3 ovarian) was 50.2 µM. It also gave a TGI (NCI/ADR-RES ovarian) of 33.4 µM, a TGI (SW-620 colon) greater than 100 µM and a TGI (MDA-MB-231 breast) of 60 µM. It also gave a TGI (SF-268 CNS) of 32.9 µM, a TGI (SK-MEL-28 melanoma) greater than 100 µM and a TGI (TK-10 renal) greater than 100 µM. It also gave a TGI (CAKI-1 renal) of 37.2 µM, a TGI (SNB-75 CNS) of 31.1 µM and a TGI (SF-295 CNS) of 38.8 µM. It also gave a TGI (T-47D breast) greater than 100 µM, a TGI (U251 CNS) greater than 100 µM and a TGI (SK-MEL-5 melanoma) greater than 100 µM. It also gave a TGI (HOP-92 NSCLC) greater than 100 µM, a TGI (HCT-15 colon) of 80.4 µM and a TGI (A498 renal) greater than 100 µM. It also gave a TGI (HS 578T breast) of 38.2 µM, a TGI (MCF7 breast) of 21.6 µM and a TGI (DU-145 prostate) greater than 100 µM.
